{
  "source": "patent US11564913B2",
  "about": "“Compositions and methods for treating cancer” (Children's Hospital Medical Center, priority 2019, dated 2023)",
  "key": {"[1]": {"system": "active Cdc42 in MDA-MB-231 cells", "assay": "Active GTPase pull-down (GST-PAK-GBD)", "assay_type": "cell-based, human", "details": "0-3 μM, 1 h", "experimental": "(§1) FIG. 5: Cytoskeletal changes induced by IODVA1 treatment. IODVA1 inhibits lamellipodia and circular dorsal ruffle (CDR) formation in MDA-MB-231 cells and decreases Rac activation. (A) IODVA1 inhibits EGF-induced lamellipodia formation in MDA-MB-231 cells. MDA-MB-231 cells were plated on fibronectin-coated coverslips, serum starved for 4 h, incubated with the indicated concentrations of IODVA1 for 1 h, then EGF (50 ng/mL) stimulated, fixed and stained with Phalloidin Alexa Fluor 594 (F-Actin, pseudocolored red) and DAPI (nuclei, pseudocolored blue). […] The percentage of cells with CDRs was counted as the number of cells with CDRs normalized to the total number of cells in the field. Around 150 cells were counted per condition per experiment. Cells with multiple CDRs were counted only once. […] Levels of active Rac (RacGTP, % of control), active Cdc42 (Cdc42GTP, % of control) and active RhoA (RhoAGTP, % of control) were quantified using ImageJ and ImageLab and show combined data as mean±s.e.m. from at least 3 independent experiments. […]\n(§2) To confirm that IODVA1 interferes with Rac activation, applicants checked the levels of active Rac and its downstream effector PAK1/2. MDA-MB-231 cells were incubated with IODVA1 (0-3 μM) for 1 h and levels of GTP-bound active Rac were measured by GST-PAK-GBD pull-downs and quantified (FIG. 5C). […]"}, "[2]": {"system": "active Rac (RacGTP) in MDA-MB-231 cells", "assay": "Active GTPase pull-down (GST-PAK-GBD)", "assay_type": "cell-based, human", "details": "0-3 μM, 1 h, dose-dependent", "experimental": "as §1, §2"}, "[3]": {"system": "BCR-ABL1-transformed Ba/F3 cells", "assay": "Colony formation assay in soft agar", "assay_type": "cell-based, murine", "details": "1 or 10 μM", "experimental": "(B) IODVA1-dependent survival curves of empty vector (red circles) or p190-BCR-ABL1 (black circles) expressing Ba/F3 cells and of Nalm-1 cells. […] (C) p190-BCR-ABL1 (grey line) or Mieg3 (black line) expressing Ba/F3 cells were allowed to grow for 1 day, treated with IODVA1 (IO1, 1 μM) for 1 day, and washed (black arrow). Cells were counted for 7 days using trypan blue exclusion. (D) Ba/F3 cells stably expressing p190-BCR-ABL1 were subjected to colony formation assay in soft agar (0.25% Noble Agar in RPMI/FBS/IL-3) in the presence of DMSO or IODVA1 (1 or 10 μM). Colonies were allowed to form for 10 days then stained with iodonitrotetrazolium (1 mg/mL). Data are representative of at least three independent experiments in triplicates. Note the smaller colony size in 1 μM IODVA1 treatment group. (E) Leukemic burden (%) of treated mice before treatment (left upper panel) and at the indicated treatment time was analyzed by flow cytometry of bone marrow aspirates as population containing B220^+/CD43^+ pro-B cells. (F) Count (%) of residual leukemic (EGFP^+-BCR-ABL1) cells in peripheral blood at weeks 3 and 5 for the secondary transplant mice from FIG. 1D. […]\nIODVA1 specifically targets BCR-ABL B-ALL cells in vitro. […] We then assessed survival of p190-BCR-ABL-transformed CD34^+ cells in the presence of IODVA1 by trypan blue exclusion. […]"}},
  "data": [
    {"smiles": "OC1(c2ccccn2)N=C(Nc2nc3ccccc3[nH]2)N=C1c1ccccn1", "note": "(stereo not drawn) [IODVA1, (Z)-2-((1H-benzo[d]imidazol-2-yl)imino)-4,5-di(pyridin-2-yl)-2,5-dihydro-1H-imidazol-5-ol]", "values": [
      {"measurement": "levels of active Cdc42", "setting": "[1]", "result": "decreased but only at the highest IODVA1 concentration"},
      {"measurement": "levels of active Rac", "setting": "[2]", "result": "significantly decreases"},
      {"measurement": "clonogenic ability in soft agar", "setting": "[3]", "result": "inhibits"}
    ]}
  ]
}
